Assay results published in patent US20040242669A1, “Method of treating deficits associated with brain injury” (priority 2003, published 2004).
Marks after values point to notes of the source that are not given here.

Experiments:
Type in all cases: in vivo, rat
[1] = tested on: animals with chronic brain occlusive ischemia; assay: Step-through passive avoidance, chronic brain occlusive ischemia; conditions: for Latency: median latency to re-enter dark box, max 300 s
Method: (§1) Male rats of the Sprague-Dawley strain (purchased from Charles River, Italy) weighing 280±20 g were used throughout all experiments. The animals were housed two-three to a cage under a constant light-dark cycle (lights on between 8.00 and 20.00) at 21° C. Commercial food and tap water were available ad libitum. All animals were used only once in the behavioral experiments.
(§2) A number of animals were subjected to a manipulation of the four major arteries of the brain with a method similar to that described by Pulsinelli et al., Ann. Neurol, 11, 491-498 (1982). Both vertebral arteries were cauterised under sodium pentobarbital anaesthesia and polyethylene cuffs PE-10 were placed loosely around the common carotid arteries without completely interrupting carotid blood flow. Two months after operation, all surviving animals showing no neurological gross abnormalities were admitted to drug treatment. Animals undergoing a sham operation were considered as controls.
Ropinirole (ropinirole hydrochloride, SmithKline Beecham, Italy) and dihydroergocryptine (DHECP) α-dihydroergocryptine methanesulfonate, Monsanto, Italy) were dissolved in saline and injected subcutaneously (s.c.) at the dose of 0.5 and 1 mg/kg/day for 7 days. In the experiments with kainate-induced convulsions, ropinirole or DHECP were injected intravenously (i.v.) 30 min prior, and again at the same time of the intracerebroventricular (i.c.v) injection on kainic acid; Control animals received an injection of saline alone with the same procedure.
(§3) Animals with 2-month chronic brain occlusive ischemia, were subjected to a treatment with ropinirole, DHECP or saline for 7 days. At the end of treatment, the animals were admitted to behavioral testing. Controls were those animals with sham manipulation of brain arteries.

[2] = tested on: kainate-induced epilepsy; assay: Kainate-induced convulsions (epilepsy); conditions: for Latency (s) to the first tonic-clonic seizure / Seizures (total number) / Mortality (%): kainic acid 10 μg/2 μl i.c.v.; for Latency (s) to the first tonic-clonic seizure / Seizures (total number): 30-min observation, mean ± S.E.M.; for Mortality (%): checked 2 h after convulsive agent
Method: as §1
Another group of animals were implanted under ether anaesthesia with a permanent plastic cannula in the right lateral ventricle (foramen interventriculare, Konig and Klippel A 6360) with another cannula into the right jugular vein. These animals were sacrificed at the end of behavioral procedure and the brains were utilized for biochemical analysis. Data were taken from animals showing no abnormalities at the postmortem examination. All experiments were carried out according to the European Community Council Directive 86/609/ECC and efforts were made to minimize animal suffering and to reduce the number of animals used.
Ropinirole (ropinirole hydrochloride, SmithKline Beecham, Italy) and dihydroergocryptine (DHECP) α-dihydroergocryptine methanesulfonate, Monsanto, Italy) were dissolved in saline and injected subcutaneously (s.c.) at the dose of 0.5 and 1 mg/kg/day for 7 days. In the experiments with kainate-induced convulsions, […], and again at the same time of the intracerebroventricular (i.c.v) injection on kainic acid; Control animals received an injection of saline alone with the same procedure.
Kainic acid (Sigma, USA) was dissolved in saline and injected i.c.v. at the dose of 10 μg/2 μi.
Over a 30-min observation, the following items were recorded per each animal receiving an i.c.v. injection of kainic acid: latency in s to the first tonic-clonic seizure; total number of seizures, percent rate of mortality (checked 2 h after the administration of the convulsive agent).
Behavioral scoring of kainate-induced convulsions was started immediately after i.c.v. injection of the drug and proceeded for 30 min. Ropinirole, DHECP or saline were injected twice, 30 min prior and, again, at the same time of the i.c.v. administration of kainic acid.

[3] = tested on: reduced glutathione in brain areas of rats subjected to hypobaric hypoxia; assay: Brain glutathione content and redox index after hypobaric hypoxia; conditions: for reduced glutathione content: mean ± S.E.M.
Method: (§4) At the end of the behavioral studies, the brain of animals sacrificed by decapitation were taken and rapidly frozen for analysis. Dissection and weighing were carried out at −25° C. The frozen forebrains were immediately powered under liquid nitrogen by an electromechanical apparatus and stored at […]. The assay of reduced and oxidized glutathione by 5,5′-dithibis-(2-nitrobenzoic acid) in frozen forebrain powder was carried out within 3 h, utilizing perchloric acid and N-ethylmaleimide in presence of ethylenediamidetetraacetic acid for the extraction procedure (Tietze, Anal Biochem, 27, 502-522, (1969)).
In the first experiment, the effects of ropinirole or DHECP were studied on amnesia induced by hypobaric hypoxia in rats. After a 7-day pretreatment with ropinirole, DHECP or saline, a group of animals was subjected to acute hypobaric hypoxia by means of a hypobaric chamber (Chantiers et Ateliers de Bretagne, France) causing depression to 300 mmHg (Boismare et al., Gerentology, 24, 6-13 (1978)). After 3 min in the chamber, the animals were removed and admitted for behavioral testing. Intact control rats were also introduced into the chamber but not subjected to hypobaric hypoxia.
(§5) All animals used for hypobaric hypoxia induced amnesia and for chronic brain occlusive ischemia was sacrificed at the end behavioral procedure for biochemical analyses.

[4] = tested on: reduced glutathione in brain areas of rats subjected to chronic brain occlusive ischemia; assay: Brain glutathione content and redox index after chronic brain occlusive ischemia; conditions: for reduced glutathione content: mean ± S.E.M.
Source text: as §2, §4, §3, §5

[5] = kainate-induced seizures, summary of Table 3

## CC(C)C[C@H]1C(=O)N2CCC[C@H]2[C@]2(O)O[C@](NC(=O)[C@@H]3C[C@@H]4c5cccc6[nH]cc(c56)C[C@H]4N(C)C3)(C(C)C)C(=O)N12 [DHECP, α-dihydroergocryptine methanesulfonate]
[1]; 0.5 mg/kg/day s.c. for 7 days
  Latency: 46^c,d
[1]; 1 mg/kg/day s.c. for 7 days
  Latency: 58^d
[1]; Table 2
  latency to re-enter the dark-box (effect of treatment, in words): increased
[2]; [5]
  latency to the first tonic-clonic seizure (effect of treatment, in words): did not modify
  percent mortality rate (effect of treatment, in words): significant decrease
  total number of kainate-induced seizures (effect of treatment, in words): did not modify
[2]; 0.5 mg/kg injected s.c. twice (30 min prior and at kainic acid)
  Latency (s) to the first tonic-clonic seizure: 56.9 ± 8.5 s
[2]; 0.5 mg/kg injected s.c. twice
  Seizures (total number): 7.8 ± 1.0
  Mortality (%): 10^a %
[2]; 1 mg/kg injected s.c. twice (30 min prior and at kainic acid)
  Latency (s) to the first tonic-clonic seizure: 69.2 ± 6.5 s
[2]; 1 mg/kg injected s.c. twice
  Seizures (total number): 5.7 ± 1.1
  Mortality (%): 10^a %
[3]; Cortex, 0.5 mg/kg
  glutathione redox index (glutathione reduced/glutathione oxidized ratio): 2.5
  reduced glutathione content: 2.2 ± 0.2 mM
[3]; Cortex, 1 mg/kg
  glutathione redox index (glutathione reduced/glutathione oxidized ratio): 2.3
  reduced glutathione content: 2.5 ± 0.2 mM
[3]; Hippocampus, 0.5 mg/kg
  glutathione redox index (glutathione reduced/glutathione oxidized ratio): 1.8
  reduced glutathione content: 2.1 ± 0.2 mM
[3]; Hippocampus, 1 mg/kg
  glutathione redox index (glutathione reduced/glutathione oxidized ratio): 2.2
  reduced glutathione content: 2.4 ± 0.2 mM
[3]; Hypothalamus, 0.5 mg/kg
  glutathione redox index (glutathione reduced/glutathione oxidized ratio): 2.6
  reduced glutathione content: 2.8 ± 0.2 mM
[3]; Hypothalamus, 1 mg/kg
  glutathione redox index (glutathione reduced/glutathione oxidized ratio): 2.8
  reduced glutathione content: 2.8 ± 0.2 mM
[3]; Striatum, 0.5 mg/kg
  glutathione redox index (glutathione reduced/glutathione oxidized ratio): 0.7
  reduced glutathione content: 1.8 ± 0.2 mM
[3]; Striatum, 1 mg/kg
  glutathione redox index (glutathione reduced/glutathione oxidized ratio): 1.7
  reduced glutathione content: 2.5 ± 0.2 mM
[3]; cortex, hippocampus and hypothalamus, both doses
  reduced glutathione content and glutathione redox index (effect of treatment, in words): increase
[3]; striatum
  reduced glutathione content and glutathione redox index (effect of treatment, in words): only with the greater dose
[4]; Cortex, 0.5 mg/kg
  glutathione redox index (glutathione reduced/glutathione oxidized ratio): 2.5
  reduced glutathione content: 2.3 ± 0.1 mM
[4]; Cortex, 1 mg/kg
  glutathione redox index (glutathione reduced/glutathione oxidized ratio): 2.3
  reduced glutathione content: 2.6 ± 0.2 mM
[4]; Hippocampus, 0.5 mg/kg
  glutathione redox index (glutathione reduced/glutathione oxidized ratio): 1.8
  reduced glutathione content: 2.0 ± 0.2 mM
[4]; Hippocampus, 1 mg/kg
  glutathione redox index (glutathione reduced/glutathione oxidized ratio): 2.2
  reduced glutathione content: 2.3 ± 0.3 mM
[4]; Hypothalamus, 0.5 mg/kg
  glutathione redox index (glutathione reduced/glutathione oxidized ratio): 2.6
  reduced glutathione content: 2.8 ± 0.2 mM
[4]; Hypothalamus, 1 mg/kg
  glutathione redox index (glutathione reduced/glutathione oxidized ratio): 2.7
  reduced glutathione content: 2.7 ± 0.2 mM
[4]; Striatum, 0.5 mg/kg
  glutathione redox index (glutathione reduced/glutathione oxidized ratio): 0.7
  reduced glutathione content: 1.8 ± 0.2 mM
[4]; Striatum, 1 mg/kg
  glutathione redox index (glutathione reduced/glutathione oxidized ratio): 0.7
  reduced glutathione content: 1.7 ± 0.2 mM
